Assay results as given in US20070155824A1, “USE OF BENZO-FUSED HETEROCYCLE SULFAMIDE DERIVATIVES FOR DISEASE MODIFICATION / EPILEPTOGENESIS” (priority 2005, published 2007).

Key:
[1] = system: amygdala kindled rat model of partial epilepsy; assay: In Vivo, Amygdala Kindling Assay; set-up: species or system Sprague-Dawley rats; settings: rats
Excerpt: The development of amygdala kindling is an established model of epileptogenesis. (Amano K, Hamada K, Yagi K, Seino M. Antiepileptic effects of topiramate on amygdaloid kindling in rats. Epilepsy Res. 1998 Jul;31(2):123-8; Barton M E, White H S. The effect of CGX-1007 and CI-1041, novel NMDA receptor antagonists, on kindling acquisition and expression. Epilepsy Res. 2004 Mar;59(1):1-12; Loscher W, Honack D, Rundfeldt C. Antiepileptogenic effects of the novel anticonvulsant levetiracetam (ucb L059)in the kindling model of temporal lobe epilepsy. J Pharmacol Exp Ther. 1998 Feb;284(2):474-9; McNamara J O. Analyses of the molecular basis of kindling development. Psychiatry Clin Neurosci. 1995 June; 49(3):S175-8. Review.; Morimoto K, Katayama K, Inoue K, Sato K. Effects of competitive and noncompetitive NMDA receptor antagonists on kindling and LTP. Pharmacol Biochem Behav. 1991 Dec;40(4):893-9; Racine, R. J. 1972. Modification of seizure activity by electrical stimulation. II. Motor seizure. Electroencephalogr. Clin. Neurophysiol. 32, 281-294). The kindled rat model of partial epilepsy is an accepted model of epileptogenesis (McNamara J O. Analyses of the molecular basis of kindling development. Psychiatry Clin Neurosci. 1995 Jun;49(3):S1 75-8. Review.).
Briefly, the assay procedure was as follows. Adult male, Sprague-Dawley rats weighing between 250-300 g were obtained from Charles River, Wilmington, Mass. All the animals were housed on a 12:12 light dark cycle and permitted free access to both food (Prolab RMH 3000) and water except when removed from the home cage for experimental procedures. Animals were cared for in a matter consistent with the recommendations detailed in the National Research Council Publication, “Guide for the Care and Use of Laboratory Animals” in a temperature controlled, pesticide-free facility. Kindling stimulations were routinely performed between 9 AM-2 PM to avoid any circadian variations.
Compound #8 was triturated in a small volume of 0.5% methylcellulose, sonicated for 10 min, and brought to a final volume with 0.5% methylcellulose. Compound #8 was administered systemically (i.p.) in a volume of 0.04 ml/10 g body weight and all tests were conducted at the pre-determined time of peak effect of 0.5 hours after i.p. administration.
The ability of Compound #8 to block the expression of amygdala kindled seizures was determined as follows. Rats were anaesthetized with a ketamine (120 mg/kg, i.p.) and xylazine (12 mg/kg, i.p.) cocktail. […]
Amygdala kindling was then performed according to the following protocol. […] The behavioral seizure score and AD duration was recorded for rats in each treatment group. […]

Compound | behavioral seizure score (Racine scale) at the conclusion of the drug- and stimulus-free period ([1]; 75 mg/kg i.p. 30 min before daily amygdala stimulation (200 μA, 2 s) for up to 13 days, re-challenge without drug after one-week drug- and stimulus-free period, vehicle=4.6±0.24) | acquisition of the full generalized kindled seizure ([1]; 75 mg/kg i.p. during kindling acquisition) | after-discharge (AD) duration over the kindling acquisition phase vs vehicle ([1]; 75 mg/kg i.p., daily stimulation, progressive increase in both groups) | delay of acquisition of kindling ([1]; stimulated in the absence of drug after the drug-free week, seizure score rose parallel to vehicle) | melting point
NS(=O)(=O)NC[C@H]1COc2cc(Cl)ccc2O1 [Compound #8, (2S)-(−)-N-(6-Chloro-2,3-dihydro-benzo[1,4]dioxin-2-ylmethyl)-sulfamide] | 1.4±0.40 | prevented the acquisition of the full generalized kindled seizure | No statistical difference between treatment groups | delayed the acquisition of kindling by several days | 
NS(=O)(=O)NCC1CCc2ccccc2O1 (centres unmarked) [Compound #10, Chroman-2-ylmethylsulfamide] |  |  |  |  | 100 to 101 °C
